The values that follow come from PubChem BioAssay (NCI).

Some test systems named below: KM12 colon; TK-10 renal; BT-549 breast; HOP-62 NSCLC; UACC-257 melanoma; SK-OV-3 ovarian; COLO 205 colon; UACC-62 melanoma; MALME-3M melanoma; LOX IMVI melanoma; SR leukemia; IGROV1 ovarian; T-47D breast.
Experiment in all cases: NCI-60 cell line screen, 48 h

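A five-concentration, 48-hour dose response in 96-well plates underlies each endpoint, interpolated linearly between surrounding concentrations. TGI: total growth inhibition.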

For `CCOP(=O)(OCC)/C(C#N)=C/c1nc[nH]c1C`, the TGI with KM12 colon, with TK-10 renal, in the assay on BT-549 breast, in the assay on HOP-62 NSCLC, with UACC-257 melanoma and with SK-OV-3 ovarian was > 100 µM each time. Moreover, the TGI in the assay on COLO 205 colon, in the assay on UACC-62 melanoma, in the assay with MALME-3M melanoma, with LOX IMVI melanoma, in the assay with SR leukemia and in the assay with IGROV1 ovarian was > 100 µM in each case.
Consider `CSC(=Nc1ccc([N+](=O)[O-])cc1C#N)NC(=O)c1ccccc1`, for which the TGI with KM12 colon, in the assay with TK-10 renal, in the assay with HOP-62 NSCLC, in the assay with UACC-257 melanoma, in the assay on COLO 205 colon and in the assay with UACC-62 melanoma was > 100 µM each time. Moreover, the TGI with MALME-3M melanoma, in the assay on LOX IMVI melanoma, in the assay on SR leukemia and in the assay with IGROV1 ovarian was > 100 µM in each case.
With `CCN(CC)c1c(-c2c(OC(C)C)c(=O)c2=O)c(=O)n2ccsc2c1OC(C)=O`, the TGI in the assay on KM12 colon, in the assay with TK-10 renal, with BT-549 breast, in the assay with HOP-62 NSCLC, in the assay on UACC-257 melanoma and with SK-OV-3 ovarian was > 100 µM in each case. Further, the TGI in the assay with COLO 205 colon, in the assay on UACC-62 melanoma, in the assay with MALME-3M melanoma, with LOX IMVI melanoma, with SR leukemia and in the assay with IGROV1 ovarian was > 100 µM throughout.
For `CCOC(=O)c1nc(SC)sc1NC(=O)c1ccc(OC)cc1`, the TGI is > 100 µM in the assay on KM12 colon; 54.7 µM in the assay on TK-10 renal; > 100 µM in the assay on HOP-62 NSCLC; > 100 µM in the assay with UACC-257 melanoma; > 100 µM in the assay on SK-OV-3 ovarian; > 100 µM in the assay with COLO 205 colon. The TGI in the assay with UACC-62 melanoma was > 100 µM; with T-47D breast, > 100 µM; in the assay on MALME-3M melanoma, 88.8 µM; in the assay on LOX IMVI melanoma it was > 100 µM; with IGROV1 ovarian, > 100 µM.
On to `NC(=O)N/N=C(\Cc1cc(=O)oc2cc(O)ccc12)C(=O)Nc1ccccc1C(N)=O`, for which the TGI in the assay with KM12 colon, in the assay with TK-10 renal, with BT-549 breast, in the assay on HOP-62 NSCLC, in the assay with UACC-257 melanoma and with SK-OV-3 ovarian was > 100 µM throughout. In addition, the TGI in the assay with COLO 205 colon, in the assay on UACC-62 melanoma, with LOX IMVI melanoma and with IGROV1 ovarian was > 100 µM in each case.
In the case of `CCOc1cc2c(cc1OC)c[n+](C)c1c3cc(OC)c(OC)cc3ccc21`, the TGI in the assay with KM12 colon, in the assay on TK-10 renal, with HOP-62 NSCLC, with UACC-257 melanoma, in the assay with SK-OV-3 ovarian and with COLO 205 colon was > 100 µM in each case. The TGI in the assay on UACC-62 melanoma is > 100 µM; with MALME-3M melanoma, > 100 µM; in the assay on LOX IMVI melanoma, > 81.3 µM; in the assay on SR leukemia it was > 100 µM; in the assay with IGROV1 ovarian it was > 100 µM.
`COc1ccc(/C=C2\C(=O)N(C(=O)c3ccc(NC(C)=O)cc3)N=C2C)cc1OC`: the TGI with KM12 colon, in the assay with TK-10 renal, in the assay with HOP-62 NSCLC, in the assay on UACC-257 melanoma, with COLO 205 colon and in the assay with MALME-3M melanoma was > 100 µM each time. For the same molecule, the TGI in the assay on LOX IMVI melanoma and with SR leukemia was > 100 µM in each case.
As for `Cc1cnoc1/N=C1\C=C(Nc2oncc2C)C(=O)c2ccccc21`, the TGI with KM12 colon, in the assay with TK-10 renal, with HOP-62 NSCLC, in the assay with UACC-257 melanoma, in the assay on SK-OV-3 ovarian and in the assay with COLO 205 colon was > 100 µM in each case. For the same molecule, the TGI in the assay with UACC-62 melanoma, in the assay with MALME-3M melanoma, in the assay with LOX IMVI melanoma, in the assay on SR leukemia and with IGROV1 ovarian was > 100 µM in each case.
Take `O=NN(CC1(O)OCC(O)C(O)C1O)C(Cc1c[nH]c2ccccc12)C(=O)O` (stereo unspecified): the TGI in the assay on KM12 colon, in the assay with TK-10 renal, in the assay on HOP-62 NSCLC, in the assay on UACC-257 melanoma, in the assay with SK-OV-3 ovarian and with COLO 205 colon was > 100 µM in each case. Moreover, the TGI in the assay with UACC-62 melanoma, in the assay on MALME-3M melanoma, with LOX IMVI melanoma and with IGROV1 ovarian was > 100 µM in each case.
`COC(=O)C1=C(C(=O)OC)C23CC4CCC2(C(=O)C1O3)C4(C)C` (stereo unspecified): the TGI with KM12 colon, in the assay with TK-10 renal, in the assay with UACC-257 melanoma, in the assay on SK-OV-3 ovarian, with COLO 205 colon and with UACC-62 melanoma was > 100 µM in each case. The TGI in the assay with MALME-3M melanoma, in the assay with LOX IMVI melanoma, in the assay with SR leukemia and with IGROV1 ovarian was > 100 µM each time.
Consider `Cc1cccc(C)c1NC(=S)N/C=C(\C#N)C(N)=O`, for which the TGI in the assay on KM12 colon, with TK-10 renal, in the assay with HOP-62 NSCLC, with UACC-257 melanoma, in the assay on SK-OV-3 ovarian and with COLO 205 colon was > 100 µM throughout. Further, the TGI in the assay with UACC-62 melanoma, in the assay on MALME-3M melanoma, in the assay on LOX IMVI melanoma and in the assay on IGROV1 ovarian was > 100 µM throughout.
In the case of `CN1CCN(c2n[nH]c(=O)c3c2nnn3Cc2ccccc2)CC1`, the TGI in the assay with KM12 colon, in the assay with TK-10 renal, with BT-549 breast, in the assay on HOP-62 NSCLC, in the assay with UACC-257 melanoma and in the assay on COLO 205 colon was > 100 µM throughout. The TGI with MALME-3M melanoma, in the assay on LOX IMVI melanoma and with SR leukemia was > 100 µM throughout.
As for `CCN1CC2=C(OC(N)=C(C#N)C2c2ccc(Cl)cc2)/C(=C/c2ccc(Cl)cc2)C1` (stereo unspecified), the TGI in the assay with KM12 colon is > 100 µM; with TK-10 renal, > 100 µM; in the assay on BT-549 breast it was > 100 µM; in the assay with HOP-62 NSCLC, 78.4 µM; in the assay with UACC-257 melanoma, > 100 µM; in the assay on SK-OV-3 ovarian it was 81.5 µM. The TGI in the assay with COLO 205 colon is > 100 µM; with UACC-62 melanoma it was > 100 µM; with MALME-3M melanoma it was 84.7 µM; with LOX IMVI melanoma it was > 100 µM; in the assay on SR leukemia it was > 100 µM; in the assay on IGROV1 ovarian it was > 100 µM.
